“Also recorded” adds a separate entry of the source.
Tests used:
Format in all cases: cell-based, human
HT-p21-9 cells [1] = assay: Senescent morphology and beta-Gal staining of HT-p21-9 cells (IPTG-induced p21); conditions: for cell divisions / arrest in the presence of nutlin-3a alone: nutlin-3a (10 μM), low cell density
Experimental: (§1) FIG. 1. Nutlin-3a converted senescence into quiescence. a. […] Cells were stained for beta-Gal and photographed (original magnification ×400). Bar scale—50 μm. b. […] Then cells were cultured in fresh medium until colonies become visible. Dishes were stained with crystal violet and photographed on day 4 (control) or on day 9 (IPTG- and nutlin-3a-treated).c. […] Before wash. Live HT-p21-9 cells (expressing GFP for better visualization of live cells) were photographed (original magnification ×100) under blue light. 3 d wash. Three days after drug removal. 9 d wash. Nine days after drug removal, cells were stained with crystal violet and photographed. d. Nutlin-3a dose response. […] After 3 days, the plates were washed and cells were incubated for an additional 9 days in fresh medium, stained with crystal violet and photographed. e. Colonies per dish. […] After 3 days, the plates were washed and cells were incubated for an additional 9 days in fresh medium. Colonies were counted and results are shown as percent of control (IPTG alone). f. Cells per dish. As in panel e. Cells were trypsinized and counted. Results are shown as percent of control (IPTG alone).
FIG. 5. Senescent versus quiescent morphology. […] Live cells, visualized with GFP (×100). In control, cells underwent 3 divisions, forming micro-colony.
(§2) Cell lines and reagents. HT-p21-9 and HT-p21-a cells are derivatives of HT1080 human fibrosarcoma cells, where p21 expression can be turned on or off using isopropyl-thio-galactosidase (IPTG) (7, 16, 28, 29, 36). […] HT-p16 cells are derivatives of HT1080 cells in which p16 expression can be turned on or off using IPTG (16, 36). WI-38-Tert, WI-38 are fibroblasts immortalized by telomerase. HT-p21-GSE56 cells: p53 inhibiting peptide GSE56 (18) was introduced into HT1080 p21-9 cells via a retroviral vector LXSE (37). Cells were grown in high glucose DMEM with 10% FC2 serum. WI-38-tert cells were grown in low glucose DMEM with 10% FCS. Rapamycin was obtained from LC Laboratories (Woburn, Mass.). IPTG (final concentration of 50 μg/ml) and FC2 were obtained from Sigma-Aldrich (St. Louis, Mo.).
(§3) Beta-galactosidase staining Beta-gal staining was performed using Senescence-galactosidase staining kit (Cell Signaling Technology).

HT-p21-9 cells [2] = assay: Colony formation / proliferative potential after drug removal, HT-p21-9 cells
Experimental: as §1
(§4) FIG. 3. […] Immunoblot. […] Immunoblot was performed as described in the methods for Example 1 below. b. Immunoblot. […] Immunoblot was performed as described in Methods. c. […] After 3 days, cells were washed and incubated in fresh medium w/o drugs for an additional 7 days. Cells were counted and are shown as percent of IPTG alone. d. […] Cells were treated with either IPTG alone (black bars) or IPTG plus rapamycin (white bars) or plus nutlin-3a (grey bars). On days 2, 3, 4, and 5 cells were lysed and protein content per well was measured. […] Cells were labeled with [^35S]methionine/cysteine as described in Methods for Example 1.
FIG. 6. […] Nine days after drug removal. a. Cell number per dish. Cells per dish were counted. b. Cell number per a colony. Number of cells per colony was calculated. A number of cells per colony was 200-250 (approximately equals to 8 divisions) by day 9.
as §2
Colony formation assay. Plates were fixed and stained with 1.0% methylene blue or with crystal violet (13).

HT-p21-9 cells [3] = assay: Metabolic labeling, [35S]methionine/cysteine incorporation (protein synthesis); conditions: IPTG-treated cells, 24 h treatment
Experimental: as §4
FIG. 8. Effects of IPTG and 500 nM rapamycin on protein synthesis ([^35S]methionine/cysteine incorporation). Cells were treated as indicated for 24 hrs and then labeled with [^35S]methionine/cysteine as described in Methods for Example 1.
Metabolic labeling. HT-p21-9 cells were seeded at 25,000 cells/well in 12-well plates. On the next day, cells were treated with drugs. After 24 h, cells were labeled with 30 μCi [^35S]methionine/cysteine (Amersham) per ml of Met/Cys-free Dulbecco's modified Eagle's medium (Invitrogen) for 1 h at 37° C. Cells were washed with PBS and lysed in 1% SDS, with 0.5% BSA. […] Filters were air-dried and counted using liquid scintillation counter.

[4] = tested on: HT-p21-a cells, HT-p16 cells; assay: Preservation of proliferative potential in IPTG-treated HT-p21-a and HT-p16 cells, nutlin-3a versus nutlin-3b; conditions: IPTG-regulated p16- and p21-expressing cells
Description: FIG. 7. […] Then medium was changed and cells were counted after 8 days. b. […] Then medium was changed and cells were counted after 5 days.
as §2

WI-38-tert cells = assay: Senescence / quiescence in WI-38-tert fibroblasts
Experimental: (§5) FIG. 4. […] HT-p21-a cells were treated with IPTG and infected with Ad-p53. After 3 days, cells were photographed (original magnification ×200): Upper panel. Under blue light to visualize cells expressing p53 (green cells). Lower panel. Under visible light to visualize all cells. Red arrows indicate cells lacking p53 expression. All of these cells show large, flat cell morphology. Green arrows indicate cells expressing p53. b-d. […] After 1 day, cells were lysed and immunoblot was performed as described in Methods for Example 1. c. […] Cells were then stained for beta-Gal activity and microphotographed. Scale bar—50 μm.d. […] Cells were then trypsinized and counted. […] Results are shown as percent of control.
FIG. 11. Effects of Ad-p21 and Ad-p53 on senescent morphology in WI-38-tert fibroblasts. WI-38-tert cells were infected with either p21-expressing adenovirus (Ad-p21) or p53-expressing adenovirus (Ad-p53) or both. After 3 days, cells were stained for beta-Gal.
as §2, §3

mTOR pathway = assay: Immunoblot for p53, p-S6, p-S6K in WI-38-tert fibroblasts
Experimental: as §5
FIG. 12. […] Immunoblot for p53, p-S6, p-S6K, S6 and actin was performed as described in Methods for Example 1.
Immunoblot analysis. Proteins were separated on 4-15% gradient Tris-HCl gels (Bio-Rad). The following antibodies were used: mouse anti-actin from Santa Cruz Biotechnology, rabbit anti-phospho-S6 (Ser240/244) and (Ser235/236), mouse anti-S6, mouse anti-phospho-p70 S6 kinase (Thr389), mouse anti-p21 and anti-p53, rabbit anti-phospho-4E-BP1 (Thr37/46) from Cell Signaling; mouse anti-4E-BP1 from Invitrogen, mouse anti-p53 (Ab-6) from Calbiochem.

[5] = 200 μM H2O2 30 min, then 10 μM nutlin-3a, 1 day

COc1ccc(C2=N[C@@H](c3ccc(Cl)cc3)[C@@H](c3ccc(Cl)cc3)N2C(=O)N2CCNC(=O)C2)c(OC(C)C)c1 [nutlin-3a]
cell morphology and SA-beta-Gal staining (HT-p21-9 cells [1]; 10 μM nutlin-3a alone, 3 days): remained small, lean and SA-beta-Gal-negative
senescent morphology caused by IPTG (HT-p21-9 cells [1]; IPTG plus compound (10 μM nutlin-3a), 3 days): prevented the senescent morphology caused by IPTG; also recorded: suppressed senescence in IPTG-treated HT-p21-9 cells only
cytostatic effect of IPTG (HT-p21-9 cells [1]; IPTG plus nutlin-3a): did not abrogate the cytostatic effect of IPTG
cell divisions / arrest in the presence of nutlin-3a alone (HT-p21-9 cells [1]; 3 days): underwent one division and did not proliferate further
cell divisions / arrest in the presence of nutlin-3a alone (HT-p21-9 cells [1]; 3 days, listed as Nutlin-3a): arrested after one division with normal cell morphology
proliferative potential and clonogenicity of IPTG-treated cells (HT-p21-9 cells [2]; IPTG plus nutlin-3a 3 days, washed, fresh medium): retained the proliferative potential and clonogenicity
number of cells per colony (HT-p21-9 cells [2]; IPTG+nutlin-3a 3 days, day 9 after drug removal): 200-250
potency in suppression of senescence (preservation of proliferative potential) (HT-p21-9 cells [2]; IPTG-treated HT-p21-9 cells): equally potent
reversibility of arrest (colony formation upon removal) (HT-p21-9 cells [2]; nutlin-3a alone 3 days, then washed): reversible arrest
further suppression of senescence by nutlin-3a in the presence of rapamycin (HT-p21-9 cells [2]; rapamycin (500 nM) at doses that completely inhibit mTOR): could not further suppress senescence
protein synthesis ([35S]methionine/cysteine incorporation) (HT-p21-9 cells [3]): inhibited ^35S-methionine/cysteine incorporation in IPTG-treated HT-p21-9 cells in a dose-dependent manner
conversion of senescence into quiescence (preservation of proliferative potential) [4]: preservation of proliferative potential
senescence induced by H2O2 (WI-38-tert cells; 10 μM nutlin-3a 3 days, washed, 3 more days, beta-Gal): suppressed senescence induced by H2O2
proliferative potential in H2O2-treated cells (WI-38-tert cells; 10 μM nutlin-3a 3 days, washed, 6 more days): partially preserved proliferative potential
type of arrest in WI-38-tert cells (WI-38-tert cells; compound alone): caused quiescence
S6 phosphorylation in H2O2-treated WI-38-tert cells (mTOR pathway; [5]): inhibited S6 phosphorylation
p53 level in H2O2-treated WI-38-tert cells (mTOR pathway; [5]): induced p53
S6K and S6 phosphorylation (mTOR pathway; concentrations that induce p53, 24 hr): inhibited S6K and S6 phosphorylation
